From article PMC9023544, “Ketone-selenoesters as potential anticancer and multidrug resistance modulation agents in 2D and 3D ovarian and breast cancer in vitro models” (Scientific Reports, 2022)

How the values were obtained:
[1] = system: MCF-7 (human breast adenocarcinoma); assay: Cytotoxic activity, 2D, resazurin, 72 h; assay type: cell-based; conditions: for IC50: Homo sapiens, MCF7, 72 h, read-out: MCF-7 IC50; for SI HEK293/MCF-7: IC50 HEK293 / IC50 MCF-7
[2] = system: HOC/ADR (sub-line resistant to Adriamycin, A2780/ADR); assay: Cytotoxic activity, 2D, resazurin, 72 h; assay type: cell-based, human; conditions: for IC50 / IC10: Homo sapiens, A2780 ADR, 72 h; for IC50: read-out: HOC/ADR IC50; for IC10: read-out: IC10 of compounds; for SI HEK293/HOC/ADR: IC50 HEK293 / IC50 HOC/ADR; for CS (collateral sensitivity index): IC50 HOC / IC50 HOC/ADR
Procedure: (§1) The cytotoxic potential of selenoesters was tested on several cancer cell lines—HOC (human parental ovarian adenocarcinoma, HOC, A2780, Sigma-Aldrich), HOC/ADR (sub-line resistant to Adriamycin, A2780/ADR, Sigma-Aldrich), MCF-7 (human breast adenocarcinoma, ATCC®, HTB-22TM), MCF-7/PAX (resistant sub-line established by gradual adaptation of parental cells to increased concentration of paclitaxel; kindly provided by Division of Cell and Molecular Biology, Third Faculty of Medicine, Charles University, Czech Republic) and on one non-cancerous cell line—HEK293 (human embryonic kidney cell line, Leibniz Institute, DSMZ-German Collection of Microorganisms and Cell Cultures GmbH). All mentioned cell lines were authenticated using short tandem repeat (STR) profiling. Cell lines were cultivated in DMEM medium (10% FBS, 1× antibiotic antimycotic solution), except for HEK293 cell line which was cultivated without antibiotics. In case of the resistant cell lines, the medium was supplemented with a required concentration of cytostatics to maintain resistance (HOC/ADR—100 nM Adriamycin; MCF-7/PAX—300 nM paclitaxel). All cells were cultivated in a CO2 incubator (5% CO2, 37 °C, Thermo Fisher Scientific).
(§2) For the experiment, the cells at passage number 5–20 were seeded at a 1 × 10^5 cells/mL concentration into 96-well plates to 100 µL final volume. The final concentration range of the compounds was 0.63–20 µM. After an incubation of 72 h, the plates were washed 1× with PBS and resazurin solution (0.03 mg/mL in 1× PBS) was added. After 1 h of incubation, the fluorescence signal was recorded (ex./em. 560/590 nm).
(§3) The selectivity index (SI) was determined as the ratio of IC50 value for the non-cancerous cells to IC50 for the cancer cell line. For resistant cell lines, the collateral sensitivity (CS) was calculated as the ratio of IC50 value in sensitive tumour cells to IC50 in the resistant cancer cell line. In both cases, the selectivity is considered as: (1) strongly selective when SI or CS value is above 6, (2) moderately selective when SI or CS is between 3 and 6, (3) slightly selective when SI or CS is between 1 and 3 and (4) non-selective when SI or CS is less than 1[23].

[3] = system: MCF-7/PAX (paclitaxel-resistant sub-line); assay: Cytotoxic activity, 2D, resazurin, 72 h; assay type: cell-based, human; conditions: for IC50: Homo sapiens, MCF7, 72 h, read-out: MCF-7/PAX IC50; for SI HEK293/MC7-7/PAX: IC50 HEK293 / IC50 MCF-7/PAX; for CS (collateral sensitivity index): IC50 MCF-7 / IC50 MCF-7/PAX; for IC10 of compounds: MCF-7/PAX
Procedure: as §1, §2, §3

[4] = molecular target: T1, human recombinant P-gp membrane fraction (Homo sapiens, UniProt P08183); assay: P-gp-Glo assay, verapamil-stimulated P-gp ATPase activity; assay type: biochemical; conditions: for IC50: read-out: IC50, verapamil-stimulated P-glycoprotein ATPase activity; for mechanism of P-gp inhibition: with and without verapamil
T1 construct: purchased Promega
T1 sequence (P08183 whole entry): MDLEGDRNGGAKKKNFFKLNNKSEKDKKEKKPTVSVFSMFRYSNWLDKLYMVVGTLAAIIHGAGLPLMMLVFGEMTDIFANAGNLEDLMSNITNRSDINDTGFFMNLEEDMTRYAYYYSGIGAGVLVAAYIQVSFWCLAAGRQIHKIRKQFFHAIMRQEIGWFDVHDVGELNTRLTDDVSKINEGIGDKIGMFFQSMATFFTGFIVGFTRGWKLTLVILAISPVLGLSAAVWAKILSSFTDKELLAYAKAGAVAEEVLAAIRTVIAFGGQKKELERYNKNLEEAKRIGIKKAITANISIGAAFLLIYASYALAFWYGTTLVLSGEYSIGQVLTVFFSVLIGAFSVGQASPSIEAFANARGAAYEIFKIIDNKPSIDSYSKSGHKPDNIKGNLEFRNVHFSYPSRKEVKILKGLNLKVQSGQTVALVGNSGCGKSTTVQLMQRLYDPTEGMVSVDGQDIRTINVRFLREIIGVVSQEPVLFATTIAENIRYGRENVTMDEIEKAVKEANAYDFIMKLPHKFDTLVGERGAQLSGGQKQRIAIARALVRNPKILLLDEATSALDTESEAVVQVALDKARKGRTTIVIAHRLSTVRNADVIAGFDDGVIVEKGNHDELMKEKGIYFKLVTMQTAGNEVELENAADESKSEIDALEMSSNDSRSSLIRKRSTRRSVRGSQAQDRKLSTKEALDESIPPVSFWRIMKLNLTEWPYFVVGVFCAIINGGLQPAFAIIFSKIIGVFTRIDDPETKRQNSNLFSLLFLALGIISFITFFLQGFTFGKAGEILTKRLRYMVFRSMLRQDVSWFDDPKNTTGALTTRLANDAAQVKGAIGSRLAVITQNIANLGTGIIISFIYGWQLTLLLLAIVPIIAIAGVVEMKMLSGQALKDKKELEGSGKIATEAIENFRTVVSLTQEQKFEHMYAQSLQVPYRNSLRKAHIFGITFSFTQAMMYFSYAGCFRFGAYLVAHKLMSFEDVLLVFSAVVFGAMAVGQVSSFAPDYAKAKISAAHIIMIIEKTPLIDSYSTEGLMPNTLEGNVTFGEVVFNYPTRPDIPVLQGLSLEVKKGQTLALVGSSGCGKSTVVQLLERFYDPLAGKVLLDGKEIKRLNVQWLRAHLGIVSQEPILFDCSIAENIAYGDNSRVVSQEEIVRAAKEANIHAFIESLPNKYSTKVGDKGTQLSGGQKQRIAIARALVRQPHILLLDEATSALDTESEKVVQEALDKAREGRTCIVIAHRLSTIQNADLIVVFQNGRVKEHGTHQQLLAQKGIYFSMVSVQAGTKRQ
Procedure: P-gp Glo™ Assay System represents a bioluminescent assay for the detection of P-gp ATPase activity. […] The activity of P-gp is inversely proportional to the luciferase-generated luminescent signal of unmetabolized ATP. For the detection of P-gp inhibitory potential, the compounds (concentration range 12.5–100 µM) were tested for their capacity to inhibit verapamil-stimulated P-gp ATPase activity in a competitive mode.
Using ATP standard curve and linear regression, the average amount of ATP consumed in presence of each compound was calculated. Afterwards, the specific P-gp activity (consumed ATP) was plotted versus the concentrations of the test compound and IC50 values were determined (Table 6). By using one-way ANOVA analysis, the statistical differences between compounds were identified; the compounds with the most statistically significant inhibition capacity was K3, followed by K4 and K7.
The modulation of P-glycoprotein ATPase activity was performed according to the manufacturer’s guidelines[54] and previously published work[55]. […] The reduction of verapamil-stimulated ATPase activity by selenoesters can indicate them as P-gp ATPase inhibitors. The reaction was initiated with 10 µL of MgATP (5 mM) addition to the final 50 µL volume. After 1 h incubation at 37 °C, the ATPase reaction was stopped with 50 µL of ATP detection reagent and subsequently the plate was incubated for 20 min at room temperature. Thanks to the luciferase reaction, it was possible to detect the remaining non-metabolized ATP as the luminescent signal. By using ATP standards and linear regression, the relative luminescent values (RLU) were converted to ATP concentration per reaction; and the amount of consumed ATP by the compounds was calculated.

CC(=O)C[Se]C(=O)c1ccc(Br)cc1 [K3]
IC50 [1]: 2000 ± 500 nM
SI HEK293/MCF-7 [1]: 1.2 ± 0.3
IC50 [2]: 2600 ± 100 nM
IC10 [2]: 2000 nM
SI HEK293/HOC/ADR [2]: 0.9 ± 0.0
CS (collateral sensitivity index) [2]: 0.7 ± 0.1
IC50 [3]: 2100 ± 100 nM
SI HEK293/MC7-7/PAX [3]: 1.1 ± 0.1
CS (collateral sensitivity index) [3]: 1.0 ± 0.3
IC10 of compounds [3]: 1200 nM
inhibition of verapamil-stimulated P-gp ATPase activity (luminescent signal) ([4]; K3 50 µM versus Na3VO4 100 µM): more effectively inhibited than sodium orthovanadate
IC50 [4]: 11700 ± 1000 nM
mechanism of P-gp inhibition [4]: competitively inhibits efflux of another substrate

CC(=O)C[Se]C(=O)c1ccccc1C(F)(F)F [K4]
IC50 [1]: 1800 ± 100 nM
SI HEK293/MCF-7 [1]: 2.9 ± 0.3
IC50 [2]: 3600 ± 100 nM
IC10 [2]: 2900 nM
SI HEK293/HOC/ADR [2]: 1.5 ± 0.2
CS (collateral sensitivity index) [2]: 0.6 ± 0.0
IC50 [3]: 3300 ± 300 nM
SI HEK293/MC7-7/PAX [3]: 1.6 ± 0.2
CS (collateral sensitivity index) [3]: 0.6 ± 0.0
IC10 of compounds [3]: 1800 nM
IC50 [4]: 23000 ± 200 nM

CC(=O)C[Se]C(=O)c1ccc(C(C)(C)C)cc1 [K7]
IC50 [1]: 1900 ± 100 nM
SI HEK293/MCF-7 [1]: 0.8 ± 0.1
IC50 [2]: 3100 ± 300 nM
IC10 [2]: 1800 nM
SI HEK293/HOC/ADR [2]: 0.5 ± 0.1
CS (collateral sensitivity index) [2]: 0.4 ± 0.1
IC50 [3]: 2400 ± 100 nM
SI HEK293/MC7-7/PAX [3]: 0.6 ± 0.1
CS (collateral sensitivity index) [3]: 0.8 ± 0.1
IC10 of compounds [3]: 1300 nM
IC50 [4]: 25700 ± 600 nM
mechanism of P-gp inhibition [4]: non-competitive P-gp inhibitor
